Columns and labels:
[1] = target: T1, Recombinant human NK3 (hNK3) receptor (Homo sapiens, UniProt P29371); test: NK3 receptor binding, [3H]SR142801 displacement, membrane preparations; conditions: second value of the cell NK1/NK3; read-out: pKi NK3 (converted)
T1 construct: expressed in transfected cells
T1 sequence (P29371 1-465): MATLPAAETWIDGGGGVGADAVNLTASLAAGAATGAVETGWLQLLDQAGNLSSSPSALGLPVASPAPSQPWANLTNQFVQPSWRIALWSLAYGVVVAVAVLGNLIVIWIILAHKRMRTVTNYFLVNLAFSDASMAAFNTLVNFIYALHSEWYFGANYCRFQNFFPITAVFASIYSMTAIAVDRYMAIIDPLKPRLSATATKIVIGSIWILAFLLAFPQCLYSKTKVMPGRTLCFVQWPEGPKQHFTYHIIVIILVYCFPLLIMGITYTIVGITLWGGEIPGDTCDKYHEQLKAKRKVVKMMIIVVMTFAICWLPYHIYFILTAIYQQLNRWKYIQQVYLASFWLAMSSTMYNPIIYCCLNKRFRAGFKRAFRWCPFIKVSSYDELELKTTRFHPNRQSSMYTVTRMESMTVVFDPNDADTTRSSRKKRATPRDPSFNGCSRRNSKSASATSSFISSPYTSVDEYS
Method in brief: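 Room-temperature, 90-min filtration binding assay using about 2.5 μg recombinant receptor membranes per well; separation on polyethyleneimine-treated glass-fibre (GF/C) filters and liquid scintillation read-out, with 10 μM SB222200 for nonspecific binding.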

human NK1 receptor = human NK1 receptor (Homo sapiens, UniProt P25103); test: NK1 receptor binding, [3H]substance P displacement, CHO cell membranes; conditions: first value of the cell NK1/NK3; read-out: pKi NK1 (converted)
Sequence of human NK1 receptor (P25103 whole entry): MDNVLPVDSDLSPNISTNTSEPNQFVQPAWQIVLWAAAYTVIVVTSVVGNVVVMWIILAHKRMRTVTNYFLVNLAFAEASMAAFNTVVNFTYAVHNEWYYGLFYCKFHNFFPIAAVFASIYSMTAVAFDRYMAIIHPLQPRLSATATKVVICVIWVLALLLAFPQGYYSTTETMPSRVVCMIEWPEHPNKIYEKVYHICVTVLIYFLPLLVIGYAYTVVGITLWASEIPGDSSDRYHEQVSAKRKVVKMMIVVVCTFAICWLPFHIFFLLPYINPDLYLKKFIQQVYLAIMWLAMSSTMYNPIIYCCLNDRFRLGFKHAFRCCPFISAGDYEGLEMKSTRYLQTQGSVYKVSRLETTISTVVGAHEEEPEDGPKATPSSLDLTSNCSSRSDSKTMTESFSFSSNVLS

Compound	Ki [1]	Ki (human NK1 receptor)
CN(C(=O)C(C)(C)c1cc(C(F)(F)F)cc(C(F)(F)F)c1)c1cnc(N2C[C@H](O)C[C@H]2CO)cc1-c1ccc(F)cc1C=O [Example 222, (2S,4R)-2-(3,5-Bis-trifluoromethyl-phenyl)-N-[4-(4-fluoro-2-formyl-phenyl)-6-(4-hydroxy-2-hydroxymethyl-pyrrolidin-1-yl)-pyridin-3-yl]-N-methyl-isobutyramide]	1.02 nM	1.05 nM
CN(C(=O)C(C)(C)c1cc(C(F)(F)F)cc(C(F)(F)F)c1)c1cnc(N2C[C@H](O)C[C@H]2CO)cc1-c1ccc(F)cc1CO [Example 223, (2S,4R)-2-(3,5-Bis-trifluoromethyl-phenyl)-N-[4-(4-fluoro-2-hydroxymethyl-phenyl)-6-(4-hydroxy-2-hydroxymethyl-pyrrolidin-1-yl)-pyridin-3-yl]-N-methyl-isobutyramide]	3.09 nM	0.708 nM
CN(C(=O)C(C)(C)c1cc(C(F)(F)F)cc(C(F)(F)F)c1)c1cnc(N2C[C@H](O)C[C@H]2CO)cc1-c1ccccc1C=O [Example 224, (2S,4R)-2-(3,5-Bis-trifluoromethyl-phenyl)-N-[4-(2-formyl-phenyl)-6-(4-hydroxy-2-hydroxymethyl-pyrrolidin-1-yl)-pyridin-3-yl]-N-methyl-isobutyramide]	1.51 nM	1.12 nM
Cc1ccc(F)cc1-c1cc(N2C[C@H](O)C[C@H]2CO)ncc1N(C)C(=O)C(C)(C)c1cc(C(F)(F)F)cc(C(F)(F)F)c1 [Example 227, (2S,4R)-2-(3,5-Bis-trifluoromethyl-phenyl)-N-[4-(5-fluoro-2-methyl-phenyl)-6-(4-hydroxy-2-hydroxymethyl-pyrrolidin-1-yl)-pyridin-3-yl]-N-methyl-isobutyramide]	1.38 nM	1.1 nM
Cc1noc(C)c1-c1cc(N2C[C@H](O)C[C@H]2CO)ncc1N(C)C(=O)C(C)(C)c1cc(C(F)(F)F)cc(C(F)(F)F)c1 [Example 230, (2S,4R)-2-(3,5-Bis-trifluoromethyl-phenyl)-N-[4-(3,5-dimethyl-isoxazol-4-yl)-6-(4-hydroxy-2-hydroxymethyl-pyrrolidin-1-yl)-pyridin-3-yl]-N-methyl-isobutyramide]	2.69 nM	0.741 nM
COc1ccc(-c2cc(N3C[C@H](O)C[C@H]3CO)ncc2N(C)C(=O)C(C)(C)c2cc(C(F)(F)F)cc(C(F)(F)F)c2)c(OC)n1 [Example 231, (2S,4R)-2-(3,5-Bis-trifluoromethyl-phenyl)-N-[6′-(4-hydroxy-2-hydroxymethyl-pyrrolidin-1-yl)-2,6-dimethoxy-[3,4′]bipyridinyl-3′-yl]-N-methyl-isobutyramide]	14.1 nM	2.45 nM
CN(C(=O)C(C)(C)c1cc(C(F)(F)F)cc(C(F)(F)F)c1)c1cnc(N2C[C@@H](O)C[C@H]2CO)cc1-c1ccc(F)cc1F [Example 237, (2S,4S)-2-(3,5-Bis-trifluoromethyl-phenyl)-N-[4-(2,4-difluoro-phenyl)-6-(4-hydroxy-2-hydroxymethyl-pyrrolidin-1-yl)-pyridin-3-yl]-N-methyl-isobutyramide]	7.76 nM	1.02 nM
Cc1cc(F)ccc1-c1cc(N2C[C@@H](O)C[C@H]2CO)ncc1N(C)C(=O)C(C)(C)c1cc(C(F)(F)F)cc(C(F)(F)F)c1 [Example 238, (2S,4S)-2-(3,5-Bis-trifluoromethyl-phenyl)-N-[4-(4-fluoro-2-methyl-phenyl)-6-(4-hydroxy-2-hydroxymethyl-pyrrolidin-1-yl)-pyridin-3-yl]-N-methyl-isobutyramide]	1.02 nM	1.23 nM
CN(C(=O)C(C)(C)c1cc(C(F)(F)F)cc(C(F)(F)F)c1)c1cnc(N2C[C@@H](O)C[C@H]2CO)cc1-c1ccc(F)cc1C=O [Example 239, (2S,4S)-2-(3,5-Bis-trifluoromethyl-phenyl)-N-[4-(4-fluoro-2-formyl-phenyl)-6-(4-hydroxy-2-hydroxymethyl-pyrrolidin-1-yl)-pyridin-3-yl]-N-methyl-isobutyramide]	1.48 nM	1.62 nM
CN(C(=O)C(C)(C)c1cc(C(F)(F)F)cc(C(F)(F)F)c1)c1cnc(N2C[C@@H](O)C[C@H]2CO)cc1-c1ccc(F)cc1CO [Example 240, (2S,4S)-2-(3,5-Bis-trifluoromethyl-phenyl)-N-[4-(4-fluoro-2-hydroxymethyl-phenyl)-6-(4-hydroxy-2-hydroxymethyl-pyrrolidin-1-yl)-pyridin-3-yl]-N-methyl-isobutyramide]	3.02 nM	0.794 nM

Second part, the compound after the results:

Ki [1]	Ki (human NK1 receptor)	Compound
5.25 nM	0.933 nM	CN(C(=O)C(C)(C)c1cc(C(F)(F)F)cc(C(F)(F)F)c1)c1cnc(N2C[C@H](O)C[C@H]2CO)cc1-c1ccc(F)cc1Cl [Example 221, (2S,4R)-2-(3,5-Bis-trifluoromethyl-phenyl)-N-[4-(2-chloro-4-fluoro-phenyl)-6-(4-hydroxy-2-hydroxymethyl-pyrrolidin-1-yl)-pyridin-3-yl]-N-methyl-isobutyramide]
2.57 nM	1.66 nM	CN(C(=O)C(C)(C)c1cc(C(F)(F)F)cc(C(F)(F)F)c1)c1cnc(N2C[C@H](O)C[C@H]2CO)cc1-c1ccccc1CO [Example 225, (2S,4R)-2-(3,5-Bis-trifluoromethyl-phenyl)-N-[6-(4-hydroxy-2-hydroxymethyl-pyrrolidin-1-yl)-4-(2-hydroxymethyl-phenyl)-pyridin-3-yl]-N-methyl-isobutyramide]
16.6 nM	7.76 nM	CN(C(=O)C(C)(C)c1cc(C(F)(F)F)cc(C(F)(F)F)c1)c1cnc(N2C[C@H](O)C[C@H]2CO)cc1-c1cc(Cl)ccc1Cl [Example 226, (2S,4R)-2-(3,5-Bis-trifluoromethyl-phenyl)-N-[4-(2,5-dichloro-phenyl)-6-(4-hydroxy-2-hydroxymethyl-pyrrolidin-1-yl)-pyridin-3-yl]-N-methyl-isobutyramide]
1.41 nM	1.17 nM	Cc1c(F)cccc1-c1cc(N2C[C@H](O)C[C@H]2CO)ncc1N(C)C(=O)C(C)(C)c1cc(C(F)(F)F)cc(C(F)(F)F)c1 [Example 228, (2S,4R)-2-(3,5-Bis-trifluoromethyl-phenyl)-N-[4-(3-fluoro-2-methyl-phenyl)-6-(4-hydroxy-2-hydroxymethyl-pyrrolidin-1-yl)-pyridin-3-yl]-N-methyl-isobutyramide]
1.86 nM	2.95 nM	CN(C(=O)C(C)(C)c1cc(C(F)(F)F)cc(C(F)(F)F)c1)c1cnc(N2C[C@H](O)C[C@H]2CO)cc1-c1cccc(Cl)c1Cl [Example 229, (2S,4R)-2-(3,5-Bis-trifluoromethyl-phenyl)-N-[4-(2,3-dichloro-phenyl)-6-(4-hydroxy-2-hydroxymethyl-pyrrolidin-1-yl)-pyridin-3-yl]-N-methyl-isobutyramide]
1.35 nM	0.575 nM	CN(C(=O)C(C)(C)c1cc(C(F)(F)F)cc(C(F)(F)F)c1)c1cnc(N2C[C@H](O)C[C@H]2CO)cc1-c1cccnc1Cl [Example 232, (2S,4R)-2-(3,5-Bis-trifluoromethyl-phenyl)-N-[2-chloro-6′-(4-hydroxy-2-hydroxymethyl-pyrrolidin-1-yl)-[3,4′]bipyridinyl-3′-yl]-N-methyl-isobutyramide]
3.89 nM	0.427 nM	Cc1ncccc1-c1cc(N2C[C@H](O)C[C@H]2CO)ncc1N(C)C(=O)C(C)(C)c1cc(C(F)(F)F)cc(C(F)(F)F)c1 [Example 233, (2S,4R)-2-(3,5-Bis-trifluoromethyl-phenyl)-N-[6′-(4-hydroxy-2-hydroxymethyl-pyrrolidin-1-yl)-2-methyl-[3,4′]bipyridinyl-3′-yl]-N-methyl-isobutyramide]
11 nM	2.19 nM	CN(C(=O)C(C)(C)c1cc(C(F)(F)F)cc(C(F)(F)F)c1)c1cnc(N2C[C@H](O)C[C@H]2CO)cc1-c1ncccc1Cl [Example 234, (2S,4R)-2-(3,5-Bis-trifluoromethyl-phenyl)-N-[3-chloro-6′-(4-hydroxy-2-hydroxymethyl-pyrrolidin-1-yl)-[2,4′]bipyridinyl-3′-yl]-N-methyl-isobutyramide]
1.26 nM	1.66 nM	CN(C(=O)C(C)(C)c1cc(C(F)(F)F)cc(C(F)(F)F)c1)c1cnc(N2C[C@@H](O)C[C@H]2CO)cc1-c1ccc(F)cc1Cl [Example 235, (2S,4S)-2-(3,5-Bis-trifluoromethyl-phenyl)-N-[4-(2-chloro-4-fluoro-phenyl)-6-(4-hydroxy-2-hydroxymethyl-pyrrolidin-1-yl)-pyridin-3-yl]-N-methyl-isobutyramide]
1.78 nM	1.78 nM	CN(C(=O)C(C)(C)c1cc(C(F)(F)F)cc(C(F)(F)F)c1)c1cnc(N2C[C@@H](O)C[C@H]2CO)cc1-c1ccc(Cl)cc1Cl [Example 236, (2S,4S)-2-(3,5-Bis-trifluoromethyl-phenyl)-N-[4-(2,4-dichloro-phenyl)-6-(4-hydroxy-2-hydroxymethyl-pyrrolidin-1-yl)-pyridin-3-yl]-N-methyl-isobutyramide]
1.62 nM	1.45 nM	Cc1ccccc1-c1cc(N2C[C@@H](O)C[C@H]2CO)ncc1N(C)C(=O)C(C)(C)c1cc(C(F)(F)F)cc(C(F)(F)F)c1 [Example 241, (2S,4S)-2-(3,5-Bis-trifluoromethyl-phenyl)-N-[6-(4-hydroxy-2-hydroxymethyl-pyrrolidin-1-yl)-4-o-tolyl-pyridin-3-yl]-N-methyl-isobutyramide]

— patent US8404708B2, “Dual NK1/NK3 receptor antagonists” (Hoffmann-La Roche Inc., priority 2004, dated 2013)
